According to patent publication US20260201008A1, “SECRETIN-DERIVED GLP1R SELECTIVE AGONISTS” (GUBRA A/S, priority 2023, published 2026):
Like-named read-outs stand apart in the source and are kept apart here. Numbered stars: 1 amine (or outer) side, 2 acyl side, 3 side chain; on linkers, the order of the positions; unused ones are H or OH. Square brackets hold non-standard residues; d marks the D form. Side chains are listed from the residue outwards. Peptide text beside a SMILES is read from it. * marks the point of attachment. C20 diacid = O=C(O)CCCCCCCCCCCCCCCCCCC(=O)*; γGlu = O=C(O)[C@H](CCC(=O)[*:2])N[*:1]; AEEA = NCCOCCOCC(=O)O; Aib = CC(C)(N)C(=O)O

Experiments:
[1] = Turbidity of crude library peptides (absorbance at 600 nm); assay type: physicochemical; conditions: Physical stability of peptides
How it was run: (§1)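 Turbidity is the absorbance at 600 nm, taken before heating. Fibril signal is the mean ThT emission at 480 nm (450 nm excitation), read every 10 min over 72 h at 40° C with 700 rpm shaking between reads. Peptides at 267 μM, pH 4.0 acetate or pH 7.0 phosphate buffer (50 mM), 4 μM ThT final.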

[2] = Fibril formation of crude library peptides (Thioflavin T); assay type: physicochemical; parameters: key: average ThT fluorescence emission at 480 nm (ex 450 nm), raw units; conditions: Physical stability of peptides
How it was run: as §1

[3] = biological target: GLP1R (Homo sapiens, UniProt P43220); assay: hGLP1R potency, cAMP accumulation in CHO-K1 cells stably overexpressing hGLP1R; assay type: cell-based; parameters: host or cells: CHO-K1; conditions: for Selectivity: SCTR EC50/GLP1R EC50 ratio; for EC50: cAMP accumulation; for SCTR EC50/GLP1R EC50 ratio: cAMP accumulation in CHO-K1 cells
How it was run: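 EC50 derives from variable-slope nonlinear regression of cAMP HTRF signal, with purified peptides tested as 11 three-fold dilutions in duplicate. Assay: hGLP1R-overexpressing CHO-K1 cells, 0.5 mM IBMX, 0.05% casein in DPBS, 30 min room-temperature stimulation, GLP-1(7-36) as reference agonist.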

[4] = biological target: SCTR (Homo sapiens, UniProt P47872); assay: hSCTR potency, cAMP accumulation in CHO-K1 cells stably overexpressing hSCTR; assay type: cell-based; parameters: alternatively Euroscreen ES-712-AF; FAST-0161L; host or cells: CHO-K1; conditions: cAMP accumulation
How it was run: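 EC50 derived from variable-slope nonlinear regression on 11-point, 3-fold series run in duplicate (crude peptides: 5 points, 10-fold, n=1). Compound stimulation lasted 30 min at room temperature in casein/IBMX-containing DPBS (0.05%, 0.5 mM), 2000 cells/well; cAMP detected by time-resolved FRET after one hour.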

[5] = CHO-K1 cells overexpressing hGLP1R, read-out: pEC50 hGLPR1 (converted)
[6] = CHO-K1 cells overexpressing hSCTR, read-out: pEC50 hSCTR (converted)
[7] = CHO-K1 cells stably overexpressing hGLP1R, read-out: hGLP1R potency (pEC50) (converted)
[8] = selectivity ratio, hSCTR vs hGLP1R
[9] = CHO-K1 cells stably overexpressing hSCTR, read-out: hSCTR potency (pEC50) (converted)

Sequence of GLP1R (P43220 24-463): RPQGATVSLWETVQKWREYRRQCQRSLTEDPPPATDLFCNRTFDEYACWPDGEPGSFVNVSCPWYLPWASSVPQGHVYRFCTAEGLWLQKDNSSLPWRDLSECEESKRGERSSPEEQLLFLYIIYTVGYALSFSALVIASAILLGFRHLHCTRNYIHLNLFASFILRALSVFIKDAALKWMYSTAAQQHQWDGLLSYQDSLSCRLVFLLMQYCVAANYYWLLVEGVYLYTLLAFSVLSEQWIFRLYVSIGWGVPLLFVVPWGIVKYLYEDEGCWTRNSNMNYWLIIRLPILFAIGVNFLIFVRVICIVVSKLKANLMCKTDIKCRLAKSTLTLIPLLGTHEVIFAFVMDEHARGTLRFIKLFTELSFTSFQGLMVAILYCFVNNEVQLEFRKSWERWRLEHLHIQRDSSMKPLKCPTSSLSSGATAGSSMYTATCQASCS
Sequence of SCTR (P47872 23-440): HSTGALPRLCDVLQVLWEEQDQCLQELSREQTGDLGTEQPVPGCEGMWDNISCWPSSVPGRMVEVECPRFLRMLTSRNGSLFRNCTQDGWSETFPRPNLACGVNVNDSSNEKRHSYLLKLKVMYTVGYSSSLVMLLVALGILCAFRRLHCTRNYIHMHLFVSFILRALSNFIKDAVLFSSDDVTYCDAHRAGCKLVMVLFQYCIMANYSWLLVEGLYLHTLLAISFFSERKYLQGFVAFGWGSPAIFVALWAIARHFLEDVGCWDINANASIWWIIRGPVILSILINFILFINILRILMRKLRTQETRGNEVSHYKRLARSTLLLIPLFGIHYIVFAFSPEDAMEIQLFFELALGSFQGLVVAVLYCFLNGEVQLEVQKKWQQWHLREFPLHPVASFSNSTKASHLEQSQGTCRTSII

SMILES	Turbidity (pH 7) [1]	Fibril formation [2]	Selectivity [3]	EC50 [3, 5] [nM]	EC50 [4, 6] [nM]	EC50 ([3]; CHO-K1 cells overexpressing hGLP1R, read-out: hGLP1R pEC50 (converted)) [nM]	SCTR EC50/GLP1R EC50 ratio ([3]; selectivity for hGLP1R over hSCTR)	EC50 ([4]; CHO-K1 cells overexpressing hSCTR, read-out: hSCTR pEC50 (converted)) [nM]	EC50 [3, 7] [nM]	SCTR EC50/GLP1R EC50 ratio [3, 8]	EC50 [4, 9] [nM]
CC(C)C[C@H](NC(=O)[C@H](Cc1ccccc1)NC(=O)[C@H](CCCNC(=N)N)NC(=O)[C@H](CCC(N)=O)NC(=O)C(C)(C)NC(=O)[C@H](C)NC(=O)[C@H](C)NC(=O)[C@H](Cc1ccccc1)NC(=O)[C@H](CCC(=O)O)NC(=O)[C@H](CCCCNC(=O)COCCOCCNC(=O)COCCOCCNC(=O)CC[C@H](NC(=O)CCCCCCCCCCCCCCCCCCC(=O)O)C(=O)O)NC(=O)[C@H](CC(C)C)NC(=O)[C@H](CCCNC(=N)N)NC(=O)[C@H](CO)NC(=O)[C@@H](NC(=O)[C@H](CC(=O)O)NC(=O)[C@H](CO)NC(=O)[C@@H](NC(=O)[C@H](Cc1ccccc1)NC(=O)[C@@H](NC(=O)CNC(=O)[C@H](CCC(=O)O)NC(=O)C(C)(C)NC(=O)[C@@H](N)Cc1c[nH]cn1)[C@@H](C)O)[C@@H](C)O)C(C)C)C(=O)N[C@@H](CCC(=O)O)C(=O)N[C@@H](Cc1c[nH]cn1)C(=O)N[C@@H](CC(C)C)C(=O)N[C@H](C(N)=O)C(C)C [compound 68] (H-H[Aib]EGTFTSDVSRLK([AEEA-AEEA-γGlu-C20 diacid])EFAA[Aib]QRFLEHLV-NH2)	0.08	13444	11839	0.1	1260	–	–	–	–	–	–
CC(C)C[C@H](NC(=O)[C@H](C)NC(=O)[C@H](CCC(=O)O)NC(=O)[C@H](CCC(=O)O)NC(=O)[C@H](CCCCNC(=O)COCCOCCNC(=O)COCCOCCNC(=O)CC[C@H](NC(=O)CCCCCCCCCCCCCCCCCCC(=O)O)C(=O)O)NC(=O)[C@H](CC(C)C)NC(=O)[C@H](Cc1ccc(O)cc1)NC(=O)[C@H](CO)NC(=O)[C@@H](NC(=O)[C@H](CC(=O)O)NC(=O)[C@H](CO)NC(=O)[C@@H](NC(=O)[C@H](Cc1ccccc1)NC(=O)[C@@H](NC(=O)CNC(=O)[C@H](CCC(=O)O)NC(=O)C(C)(C)NC(=O)[C@@H](N)Cc1c[nH]cn1)[C@@H](C)O)[C@@H](C)O)C(C)C)C(=O)N[C@@H](CC(C)C)C(=O)N[C@@H](CCC(N)=O)C(=O)N[C@@H](CCCNC(=N)N)C(=O)N[C@@H](Cc1ccccc1)C(=O)N[C@@H](CC(C)C)C(=O)N[C@@H](CCC(=O)O)C(=O)N[C@@H](Cc1c[nH]cn1)C(=O)N[C@@H](CC(C)C)C(=O)N[C@H](C(N)=O)C(C)C [compound 132] (H-H[Aib]EGTFTSDVSYLK([AEEA-AEEA-γGlu-C20 diacid])EEALLQRFLEHLV-NH2)	0.08	3358	–	–	–	0.02	10415	200	–	–	–
CC[C@H](C)[C@H](NC(=O)[C@H](Cc1ccccc1)NC(=O)[C@H](CCCNC(=N)N)NC(=O)[C@H](CCC(N)=O)NC(=O)[C@H](CC(C)C)NC(=O)[C@H](C)NC(=O)[C@H](C)NC(=O)CNC(=O)[C@H](CCC(=O)O)NC(=O)[C@H](CC(C)C)NC(=O)[C@H](CC(C)C)NC(=O)[C@H](Cc1c[nH]c2ccccc12)NC(=O)[C@H](CO)NC(=O)[C@H](Cc1c[nH]c2ccccc12)NC(=O)[C@H](CC(=O)O)NC(=O)[C@H](CO)NC(=O)[C@@H](NC(=O)[C@H](Cc1ccccc1)NC(=O)[C@@H](NC(=O)CNC(=O)[C@H](CCC(=O)O)NC(=O)C(C)(C)NC(=O)[C@@H](N)Cc1c[nH]cn1)[C@@H](C)O)[C@@H](C)O)C(=O)N[C@@H](CCC(N)=O)C(=O)N[C@@H](Cc1c[nH]c2ccccc12)C(=O)N[C@@H](CC(C)C)C(=O)N[C@H](C(N)=O)C(C)C [compound 191] (H-H[Aib]EGTFTSDWSWLLEGAALQRFIQWLV-NH2)	0.61	120310	–	–	–	–	–	–	0.0794	904	63.1
CC(C)C[C@H](NC(=O)[C@H](Cc1ccccc1)NC(=O)[C@H](CCCNC(=N)N)NC(=O)[C@H](CCC(N)=O)NC(=O)[C@@H](NC(=O)[C@H](C)NC(=O)[C@H](C)NC(=O)[C@@H](NC(=O)[C@H](CCC(=O)O)NC(=O)[C@H](CCCCNC(=O)COCCOCCNC(=O)COCCOCCNC(=O)CC[C@H](NC(=O)CCCCCCCCCCCCCCCCCCC(=O)O)C(=O)O)NC(=O)[C@H](CC(C)C)NC(=O)[C@H](CCC(=O)O)NC(=O)[C@H](CO)NC(=O)[C@@H](NC(=O)[C@H](CC(=O)O)NC(=O)[C@H](CO)NC(=O)[C@@H](NC(=O)[C@H](Cc1ccccc1)NC(=O)[C@@H](NC(=O)CNC(=O)[C@H](CCC(=O)O)NC(=O)C(C)(C)NC(=O)[C@@H](N)Cc1c[nH]cn1)[C@@H](C)O)[C@@H](C)O)C(C)C)[C@@H](C)O)[C@@H](C)O)C(=O)N[C@@H](CCC(=O)O)C(=O)N[C@@H](Cc1c[nH]cn1)C(=O)N[C@@H](CC(C)C)C(=O)N[C@H](C(N)=O)C(C)C [compound 54] (H-H[Aib]EGTFTSDVSELK([AEEA-AEEA-γGlu-C20 diacid])ETAATQRFLEHLV-NH2)	0.09	7756	11020	0.0126	126	–	–	–	–	–	–
CC(C)C[C@H](NC(=O)[C@H](Cc1ccccc1)NC(=O)[C@H](CCCNC(=N)N)NC(=O)[C@H](CCC(N)=O)NC(=O)[C@@H](NC(=O)[C@H](C)NC(=O)[C@H](C)NC(=O)[C@H](CCC(=O)O)NC(=O)[C@H](CCC(=O)O)NC(=O)[C@H](CCCCNC(=O)COCCOCCNC(=O)COCCOCCNC(=O)CC[C@H](NC(=O)CCCCCCCCCCCCCCCCCCC(=O)O)C(=O)O)NC(=O)[C@H](CC(C)C)NC(=O)[C@@H](NC(=O)[C@H](CO)NC(=O)[C@@H](NC(=O)[C@H](CC(=O)O)NC(=O)[C@H](CO)NC(=O)[C@@H](NC(=O)[C@H](Cc1ccccc1)NC(=O)[C@@H](NC(=O)CNC(=O)[C@H](CCC(=O)O)NC(=O)C(C)(C)NC(=O)[C@@H](N)Cc1c[nH]cn1)[C@@H](C)O)[C@@H](C)O)C(C)C)C(C)C)[C@@H](C)O)C(=O)N[C@@H](CCC(=O)O)C(=O)N[C@@H](Cc1c[nH]cn1)C(=O)N[C@@H](CC(C)C)C(=O)N[C@H](C(N)=O)C(C)C [compound 53] (H-H[Aib]EGTFTSDVSVLK([AEEA-AEEA-γGlu-C20 diacid])EEAATQRFLEHLV-NH2)	0.08	5164	10988	0.00501	63.1	–	–	–	–	–	–
CC(C)C[C@H](NC(=O)[C@H](Cc1ccccc1)NC(=O)[C@H](CCCNC(=N)N)NC(=O)[C@H](CCC(N)=O)NC(=O)[C@H](CCC(=O)O)NC(=O)[C@H](C)NC(=O)[C@H](C)NC(=O)[C@H](CCC(=O)O)NC(=O)[C@H](CCC(=O)O)NC(=O)[C@H](CCCCNC(=O)COCCOCCNC(=O)COCCOCCNC(=O)CC[C@H](NC(=O)CCCCCCCCCCCCCCCCCCC(=O)O)C(=O)O)NC(=O)[C@H](CC(C)C)NC(=O)[C@H](CCC(=O)O)NC(=O)[C@H](CO)NC(=O)[C@@H](NC(=O)[C@H](CC(=O)O)NC(=O)[C@H](CO)NC(=O)[C@@H](NC(=O)[C@H](Cc1ccccc1)NC(=O)[C@@H](NC(=O)CNC(=O)[C@H](CCC(=O)O)NC(=O)C(C)(C)NC(=O)[C@@H](N)Cc1c[nH]cn1)[C@@H](C)O)[C@@H](C)O)C(C)C)C(=O)N[C@@H](CCC(=O)O)C(=O)N[C@@H](Cc1c[nH]cn1)C(=O)N[C@@H](CC(C)C)C(=O)N[C@H](C(N)=O)C(C)C [compound 51] (H-H[Aib]EGTFTSDVSELK([AEEA-AEEA-γGlu-C20 diacid])EEAAEQRFLEHLV-NH2)	0.09	8475	63009	0.0316	2000	–	–	–	–	–	–
CC[C@H](C)[C@H](NC(=O)[C@H](Cc1ccccc1)NC(=O)[C@H](CCCNC(=N)N)NC(=O)[C@H](CCC(N)=O)NC(=O)[C@H](CC(C)C)NC(=O)[C@H](C)NC(=O)[C@H](C)NC(=O)CNC(=O)[C@H](CCC(=O)O)NC(=O)[C@H](CC(C)C)NC(=O)[C@H](CC(C)C)NC(=O)[C@H](CCC(=O)O)NC(=O)[C@H](CO)NC(=O)[C@H](Cc1ccc(O)cc1)NC(=O)[C@H](CC(=O)O)NC(=O)[C@H](CO)NC(=O)[C@@H](NC(=O)[C@H](Cc1ccccc1)NC(=O)[C@@H](NC(=O)CNC(=O)[C@H](CCC(=O)O)NC(=O)C(C)(C)NC(=O)[C@@H](N)Cc1c[nH]cn1)[C@@H](C)O)[C@@H](C)O)C(=O)N[C@@H](CCC(N)=O)C(=O)N[C@@H](Cc1c[nH]c2ccccc12)C(=O)N[C@@H](CC(C)C)C(=O)N[C@H](C(N)=O)C(C)C [compound 199] (H-H[Aib]EGTFTSDYSELLEGAALQRFIQWLV-NH2)	0.46	260000	–	–	–	–	–	–	0.0251	223	5.01
